We go through two substances from publication PMC7510464, “The wasp venom antimicrobial peptide polybia‐CP and its synthetic derivatives display antiplasmodial and anticancer properties” (Bioengineering & Translational Medicine, 2020).

Data set [1] concerns human mammary cells (MCF-7). Kind of data set: MTT assay, MCF-7 cells. Format: cell-based. The note with it: 570 nm, method gives serial dilutions 0.09–50 μmol L^−1, 2 and 24 hr (time for IC50 not stated), triplicate, NO = not observed, read-out: IC50, concentration of peptide needed for killing 50% of MCF-7. The protocol:
(§1) Human mammary adenocarcinoma (MCF‐7) cells were maintained in RPMI 1640 medium supplemented with 10% heat inactivated fetal bovine serum and 100 μg ml^−1 penicillin/10 μg ml^−1 streptomycin. While hepatocellular carcinoma (Hep G2) cells, neuroblastoma (SHSY‐5Y) cells and melanoma (SK‐mel‐147) cells were maintained in RPMI 1640 medium supplemented with 10% heat inactivated fetal bovine serum and 100 μg ml^−1 penicillin/10 μg ml^−1 streptomycin. One day before the assays, the cells were plated in 96‐well microtiter plate with a density of 2.0 × 10^4 cells/well at 37°C and 5% CO2. On the next day, cells were treated with peptides serial dilutions (0.09–50 μmol L^−1), incubated in individual microtiter plates for 2 and 24 hr and MTT assays were performed after treatment. Human breast epithelial cells MCF‐10A (ATCC) were maintained in mixture of Dulbecco's modified Eagle's medium and Ham's F12 nutrient mixture supplemented with 5% inactivated horse serum, 10 μg ml^−1 insulin, 0.02 μg ml^−1 human epidermal growth factor, 0.5 μg ml^−1 hydrocortisone, 0.10 μg ml^−1 choleric toxin, 100 U ml^−1 penicillin, and 100 μg ml^−1 streptomycin. […]
(§2) Briefly, MTT (Sigma–Aldrich) was dissolved in water and filtered to make up a 5 μg ml^−1 solution. […] Finally, the microplates were read on an ELISA reader at 570 nm. […]

Data set [2] concerns Plasmodium gallinaceum sporozoites. In words: Effect of peptides on salivary gland-derived P. gallinaceum sporozoites (membrane integrity, propidium iodide fluorescence). Format: cell-based. The conditions noted are these: peptides 0.39–6.25 μmol L^−1, 9000 sporozoites in 50 μl PBS, 37°C, 1 hr, fluorescence microscopy, three independent replicates. On the procedure:
To assess the antiplasmodial activity of Pol‐CP‐NH2 and its derivatives, the molecules were incubated with Plasmodium gallinaceum sporozoites. The avian malaria parasite, P. gallinaceum, was chosen as the plasmodium model for this study because it presents lower risk and it is highly similar ^27 , ^28 to existing Plasmodium falciparum models responsible for human malaria. ^29
FIGURE 2 Antiplasmodial activity of polybia‐CP and derivatives in vitro. […] In red, we highlight the conditions at which the peptides were not active against the Plasmodium sporozoites. Experiments were performed in three independent replicates with three repetitions for each condition
Nine thousand P. gallinaceum mature sporozoites were pulled from the salivary glands of A. aegypti and incubated in 50 μl of PBS solution, with 40 μmol L^−1 digitonin (positive control), 0.39–6.25 μmol L^−1 peptides or negative control (PBS solution), at 37°C for 1 hr. Cell membrane integrity was then observed using a Carl Zeiss inverted fluorescence microscope (model Observer Axio Vision A.1) coupled to an image capture Zeiss AxioCam HR digital camera (1,300 × 1,030 pixels resolution and 8‐bit quantization) after addition of 1 μl of the propidium iodide aqueous solution (200 μmol L^−1) in […] of total solution volume. Images were obtained using a ×40 objective lens and a green filter effect in red. […]

For data set [3], the system named is carcinoma cells of human liver (HepG2). In words: MTT assay, HepG2 cells. Type of data set: cell-based. The conditions noted are these: 570 nm, method gives serial dilutions 0.09–50 μmol L^−1, 2 and 24 hr (time for IC50 not stated), triplicate, NO = not observed, read-out: IC50, concentration of peptide needed for killing 50% of HepG2. On the procedure:
as §1, §2

The subject of data set [4] is neuroblastoma cell (SH-SY5Y). In words: MTT assay, SH-SY5Y cells. Format: cell-based. The conditions noted are these: 570 nm, method gives serial dilutions 0.09–50 μmol L^−1, 2 and 24 hr (time for IC50 not stated), triplicate, NO = not observed, read-out: IC50, concentration of peptide needed for killing 50% of SH-SY5Y. On the procedure:
as §1, §2
Background: Tetrazolium dyes change colour on reduction, which living cells bring about.

Data set [5] relates to human embryonic kidney (HEK293) cells. The note with it: at 25 μmol L^−1; cited from earlier work. An excerpt: The inhibitory activities observed against cancer cell lines are at the same range of concentrations reported for antimicrobial activity ^6 (Figure 2b) for this family of peptides.

No end group written: not given here.

Take ILGKILGLLKSL-NH2 [[Lys]^4-Pol-CP-NH2]: the results for the IC50 in data set [1], in data set [3] and in data set [4] were 200 µM, over 50 µM and over 50 µM, respectively. Also, the “antiplasmodial activity (fluorescent sporozoites, membrane disrupted)” value in data set [2] is reported as “most active ones against Plasmodium”.

For the substance “ILGTILGLLKSL-NH2 [Pol-CP-NH2, Ile‐Leu‐Gly‐Thr‐Ile‐Leu‐Gly‐Leu‐Leu‐Lys‐Ser‐Leu‐NH2]”, the IC50 in data set [1] stood at 200 µM. Moreover, the “toxicity against HEK293 cells” value in data set [5] is on record as “one of the most toxic AMPs of the polybia‐CP family”.
